These results are taken from US20090182028A1, “Plant Components and Extracts and Uses Thereof” (G.I.M. GESELLSCHAFT-FUR INNOVATIVE MEDIZIN G.M.B.H NFG OHG, priority 2006, published 2009).

Format in all cases: cell-based
For series [1], the target named is T1, human AhR (Homo sapiens, UniProt P35869).
T1 construct: expressed in transfected cells; host or cells: Saccharomyces cerevisiae strain YCM3 (gift of Charles Miller)
The series is described as follows: Yeast AhR screen (strain YCM3), assay in plastic tubes. The source says:
(§1) The yeast AhR screen is an in-vitro test to detect transactivating potential of substances on the arylhydrocarbon receptor. The recombinant yeast strain YCM3 of Saccharomyces cerevisiae, which was a present of Charles Miller, was used. The assay procedure was essentially as described by Miller. The human AhR and ARNT genes are integrated into chromosome III of the yeast. The galactose-regulated GAL 1, 10 promotor is accountable for the expression of AhR and ARNT in equal shares by induction with galactose, the carbon source of the medium (GOLD medium-trp). If a ligand of the AhR is present, an AhR/ARNT heterodimer is built and can bind to the five xenobiotic response elements of the lacZ-reporter plasmid and induce the expression of the lacZ-gene. Therefore the transcriptional activation of a ligand is quantified via β-galactosidase activity. […] The yeast AhR assay was performed in 50 ml plastic tubes with conical bottom and in microtiterplates.
A colony of YCM3 was transferred in SCM-trp medium and grown to OD600 of about 2.0. For each experiment a new overnight culture was prepared in SCM-trp medium. For this purpose a 1:10 dilution of the YCM3 yeast stock in SCM-trp medium was prepared. After incubation overnight the culture was diluted to an OD600 of 0.4 and grown again to an OD600 of 1.0 to 1.5. For the assay the culture was 1:50 diluted in Gold galactose-trp media, which contains 1.2% galactose as the inductor. 50 μl of test substance (dissolved in DMSO) and 5 ml of this yeast culture were incubated for 17 h at 30° C. while shaking. The tubes have to be in an inclined position for optimal yeast growth. For the blank only 50 μl of DMSO were added to the yeast culture. A calibration curve with β-naphtoflavone was performed within each test run. After incubation cells were collected by centrifugation at 2500 rpm for 5 min. The supernatant was discarded, the pellets were resuspended in 1 ml lacZ-buffer, transferred into 1.5 ml test tubes and centrifuged at 10 000 rpm and 4° C. for 5 min. The supernatant was removed again and the pellets were resuspended in 100 μl lacZ buffer. Disintegration of the yeast cells was performed by vortexing with glass beads (3 times for 30 s with a rest on ice of 15 s between the vortexes). After centrifugation at 10 000 rpm and 4° C. for 10 min, the clear supernatant was used to perform the β-galactosidase and the protein-assay.
For the β-galactosidase-assay 5 μl from each test tube were transferred to a 96-well microtiterplate. 250 μl of a 1:6 diluted o-nitrophenyl-b-galactopyranoside (ONPG)-solution (dilution with lacZ-buffer) were added to each well. The microtiterplate was incubated at 37° C. until a yellow colour had developed. The reaction was stopped by adding 100 μl of 1 M Na2CO3 and the reaction time was noticed. […] Each determination was carried out in duplicates.
For the protein assay a modified method according to Bradford was performed. 5 μl of the supernatant of each test tube were transferred to the microtiterplate and 250 μl of Bio-Rad protein assay reagent (diluted with water 1:10) were added. […] As reference a standard curve with BSA was employed within each test. Each determination was carried out in duplicates.
The expression of β-galactosidase is equivalent to the quantity of the transactivating activity of substances and samples. The specific enzyme activity is expressed in AhR-units, which are the β-galactosidase-activity normalised to the total protein-level. The data were evaluated according Jungbauer et al..
(§2) For evaluation the AhR-units are plotted against the concentration (logarithmic scaling). The resulting curve is fitted using a logistic dose response function. The calculation and fitting was performed with Table Curve 2D software (Jandel Scientific).

Series [2] deals with T1, human AhR. In words: Yeast AhR screen (strain YCM3), assay in microtiterplate.
Source text: as §1
A colony of YCM3 was transferred in SCM-trp medium and grown to OD600 of about 2.0. For each experiment a new overnight culture was prepared in SCM-trp. For this purpose a 1:10 dilution of the YCM3 yeast stock in SCM-trp medium was prepared. After incubation overnight the culture was diluted to an OD600 of 0.4 and grown again to an OD600 of 1.0 to 1.5. For the assay the culture was 1:50 diluted in Gold galactose-trp media, which contains 1.2% galactose as the inductor.
1 μl of test substance (dissolved in DMSO) and 100 μl of the yeast culture in galactose media were transferred in the wells (flat bottom) of a 96-well sterile microtiterplate. Each determination was carried out in duplicates. A calibration curve with β-naphtoflavone was performed within each test run. For better results only the inner part of the plate was used for the assay, because of a greater evaporation in the outer wells (row A and H, column 1 and 12). 150 μl of the diluted yeast culture were transferred into the outer wells. The microtiterplate was incubated for 17 h at 30° C. and while shaking.
The disintegration of the assay was performed with N-lauroylsarcosine, a strong detergent. A related method was described by Kippert, who used 1.5 ml centrifuge tubes and a disintegration with a 0.2% sarcosyl-solution. For the microtiterplate assay a modified version was used and the disintegration was performed via a 0.5% sarcosyl-solution. To circumvent a centrifugation of the plate and a transfer of the supernatant in another plate, what would complicate the assay unnecessarily, the calculation of the AhR-units was related to the optical density of 600 nm, instead of the protein level. A similar proceeding was applied by Adachi et al. and Miller.
After incubation 150 μl Z-Sarcosyl-buffer to each well were added. Then the OD was measured at 600 nm. For complete disintegration of the cells the plate was incubated for 20 min at 30° C. Afterwards 50 μl of ONPG-solution (a 1:6 diluted) were added to each well and incubated at 37° C. until a yellow colour had developed. The reaction was stopped by adding of 50 μl 1 M Na2CO3 and the reaction time was noticed. The absorption was measured at 405 nm (reference wavelength 620 nm).
The results of the β-galactosidase-assay of the AhR screen in microtiterplates were referenced to cell density (measured as the optical cell density at a wavelength of 600 nm). The calculation of the AhR-units is realised as follows:
OD405 and OD600 are the optical densities at a wavelength of 405 nm respectively 600 nm and Δt is the incubation time at 37° C. in minutes.
as §2

Series [3] addresses T1, human AhR. The series is described as follows: Yeast AhR assay, format (tubes or microtiterplate) not stated.
Source text: as §1, §2
The equivalent concentrations of the extracts and samples were calculated from the logistic dose-response curve of β-naphtoflavone (FIG. 8) and expressed as nmol β-naphtoflavone per g sample or volume of sample.

[4] abbreviates: in plastic tubes, logistic dose response fit.
[5] abbreviates: in microtiterplate, logistic dose response fit.
[6] abbreviates: in microtiterplate, logistic dose response fit, read-out: Potency.

pEC50: −log10 of the molar value. “Also recorded” adds a separate entry of the source. Where two headings read alike, the source gives them in different places.

T1 sequence (P35869 11-848): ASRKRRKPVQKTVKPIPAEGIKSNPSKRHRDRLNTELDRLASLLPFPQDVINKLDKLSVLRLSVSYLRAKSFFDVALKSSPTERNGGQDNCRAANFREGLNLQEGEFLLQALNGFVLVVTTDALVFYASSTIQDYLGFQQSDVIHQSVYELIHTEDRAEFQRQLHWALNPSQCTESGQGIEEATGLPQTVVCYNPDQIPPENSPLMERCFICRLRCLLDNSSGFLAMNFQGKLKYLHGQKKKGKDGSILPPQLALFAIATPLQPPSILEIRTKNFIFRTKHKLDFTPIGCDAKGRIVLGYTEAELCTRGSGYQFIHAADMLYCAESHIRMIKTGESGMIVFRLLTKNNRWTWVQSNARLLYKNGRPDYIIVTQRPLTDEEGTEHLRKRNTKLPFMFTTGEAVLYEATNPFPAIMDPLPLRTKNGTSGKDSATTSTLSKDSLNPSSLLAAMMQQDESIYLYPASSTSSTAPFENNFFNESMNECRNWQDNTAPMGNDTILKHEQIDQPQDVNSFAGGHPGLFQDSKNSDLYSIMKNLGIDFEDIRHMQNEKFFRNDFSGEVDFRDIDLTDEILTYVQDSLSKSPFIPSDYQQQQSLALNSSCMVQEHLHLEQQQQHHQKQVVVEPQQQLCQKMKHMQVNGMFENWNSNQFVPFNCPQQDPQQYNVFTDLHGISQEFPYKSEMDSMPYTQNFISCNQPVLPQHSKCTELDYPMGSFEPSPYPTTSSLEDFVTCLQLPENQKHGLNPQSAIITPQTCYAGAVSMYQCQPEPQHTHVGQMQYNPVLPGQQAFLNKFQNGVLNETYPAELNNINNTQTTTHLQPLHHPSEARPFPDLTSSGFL
T1 sequence (P27540 whole entry partner): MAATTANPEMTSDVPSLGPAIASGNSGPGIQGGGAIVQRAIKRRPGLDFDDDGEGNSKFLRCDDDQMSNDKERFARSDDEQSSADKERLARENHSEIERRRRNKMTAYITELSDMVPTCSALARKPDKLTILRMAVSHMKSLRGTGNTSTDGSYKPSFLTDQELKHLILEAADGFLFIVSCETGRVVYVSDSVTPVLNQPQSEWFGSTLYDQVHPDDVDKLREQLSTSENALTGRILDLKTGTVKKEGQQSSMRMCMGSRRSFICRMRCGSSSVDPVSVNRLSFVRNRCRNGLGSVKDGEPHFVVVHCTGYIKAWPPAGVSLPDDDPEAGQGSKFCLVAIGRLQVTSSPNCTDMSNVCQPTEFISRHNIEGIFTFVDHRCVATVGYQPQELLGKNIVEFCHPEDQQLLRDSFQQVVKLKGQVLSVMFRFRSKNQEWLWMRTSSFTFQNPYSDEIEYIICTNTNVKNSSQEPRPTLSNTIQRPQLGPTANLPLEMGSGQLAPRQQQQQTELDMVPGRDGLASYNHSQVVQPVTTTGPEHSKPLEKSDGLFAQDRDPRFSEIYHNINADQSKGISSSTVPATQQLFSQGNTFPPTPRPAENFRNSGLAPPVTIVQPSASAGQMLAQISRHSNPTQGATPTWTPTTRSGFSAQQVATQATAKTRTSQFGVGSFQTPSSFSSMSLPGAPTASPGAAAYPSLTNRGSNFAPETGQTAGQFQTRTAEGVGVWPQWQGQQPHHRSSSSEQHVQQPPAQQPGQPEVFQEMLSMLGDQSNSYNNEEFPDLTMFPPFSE

As to `C[C@]12CC[C@@H]3c4ccc(O)cc4CC[C@H]3[C@@H]1CC[C@@H]2O` [17-β-Estradiol], the “Potency (mol/l)” value on human AhR [1] (setting [4]) is listed as “no activity”.

Regarding `O=c1cc(-c2ccc(O)cc2)oc2cc(O)cc(O)c12` [Apigenin], the “Potency (mol/l)” value at human AhR [1] and on human AhR [2] (setting [5]) was “active^c” in each case. Besides, the “transactivation of the AhR (in words)” value on human AhR [1] (pure compounds in DMSO) is given as “a transactivation took place”.

`COc1ccc(-c2coc3cc(O)cc(O)c3c2=O)cc1` [Biochanin A]: the pEC50 at human AhR [1] was 6.22; at human AhR [2] (setting [6]), 6.90.

For `O=C(O)/C=C/c1ccc(O)c(O)c1` [Caffeic acid], the “Potency (mol/l)” value on human AhR [1] (setting [4]) is listed as “no activity”. In addition, on human AhR [1] (pure compounds in DMSO), the “transactivation of the AhR (in words)” value is reported as “no activity”.

In the case of `O=c1oc2cc(O)ccc2c2oc3cc(O)ccc3c12` [Coumestrol], the pEC50 was 5.68 at human AhR [1] and 5.98 on human AhR [2].

For the compound `COc1cc(/C=C/C(=O)CC(=O)/C=C/c2ccc(O)c(OC)c2)ccc1O` [Curcumin], the “Potency (mol/l)” value at human AhR [1] (setting [4]) is “no activity”.

As to `O=c1c(-c2ccc(O)cc2)coc2cc(O)ccc12` [Daidzein], the “Potency (mol/l)” value on human AhR [1] was “no activity”.

For `COc1ccc(-c2cc(=O)c3c(O)cc(O[C@@H]4O[C@H](CO[C@@H]5O[C@@H](C)[C@H](O)[C@@H](O)[C@H]5O)[C@@H](O)[C@H](O)[C@H]4O)cc3o2)cc1O` [Diosmin], the “Potency (mol/l)” value on human AhR [1] (setting [4]) is “no activity”.

Turning to `Oc1cc(O)c2c(c1)O[C@H](c1ccc(O)c(O)c1)[C@H](O)C2` [Epicatechin], at human AhR [1] (setting [4]), the “Potency (mol/l)” value is “no activity”.

For the compound `Oc1ccc([C@H]2COc3cc(O)ccc3C2)cc1` [Equol], the “Potency (mol/l)” value at human AhR [1] and on human AhR [2] was “active^c” in each case. Further, the “transactivation of the AhR (in words)” value on human AhR [1] (pure compounds in DMSO) is “a transactivation took place”.

Consider `COc1cc(/C=C/C(=O)O)ccc1O` [Ferulic acid], for which the “Potency (mol/l)” value at human AhR [1] (setting [4]) was “no activity”. Moreover, the “transactivation of the AhR (in words)” value on human AhR [1] (pure compounds in DMSO) was “no activity”.

For the compound `COc1ccc(-c2coc3cc(O)ccc3c2=O)cc1` [Formononetin], the pEC50 on human AhR [1] was 6.03; at human AhR [3] it was 6.04 to 6.92; on human AhR [2], 6.60.

Turning to `O=C(O)c1cc(O)c(O)c(O)c1` [Gallic acid], at human AhR [1], the “Potency (mol/l)” value was “no activity” and the “transactivation of the AhR (in words)” value is reported as “no activity”.

As to `O=c1c(-c2ccc(O)cc2)coc2cc(O)cc(O)c12` [Genistein], on human AhR [1] (setting [4]), the “Potency (mol/l)” value is “no activity”. The “transactivation of the AhR (in words)” value at human AhR [1] (pure compounds in DMSO) is listed as “no transcriptional activity; also recorded: do not activate the AhR”.

In the case of `OCc1c[nH]c2ccccc12` [Indole-3-carbinol], the pEC50 at human AhR [3] and at human AhR [2] was 5.15 in each case.

Regarding `O=C1C[C@@H](c2ccc(O)cc2)Oc2cc(O)cc(O)c21` [Naringenin], the “Potency (mol/l)” value on human AhR [1] (setting [4]) and on human AhR [2] (setting [5]) was “active ^c” throughout. Besides, the “transactivation of the AhR (in words)” value on human AhR [1] (pure compounds in DMSO) is on record as “a transactivation took place”.

On to `O=C(CCc1ccc(O)cc1)c1c(O)cc(O)cc1O` [Phloretin], for which the “Potency (mol/l)” value on human AhR [1] (setting [4]) is on record as “no activity”.

In the case of `CCCCOC(=O)c1ccccc1C(=O)OCCCC` [Phtalic acid dibutyl ester], the “Potency (mol/l)” value on human AhR [1] is recorded as “no activity”.

As for `CC(=O)[C@H]1CC[C@H]2[C@@H]3CCC4=CC(=O)CC[C@]4(C)[C@H]3CC[C@]12C` [Progesteron], at human AhR [1] (setting [4]), the “Potency (mol/l)” value is on record as “no activity”. For the same compound, the “transactivation of the AhR (in words)” value at human AhR [1] (pure compounds in DMSO) is recorded as “failed also in transactivating the AhR”.

As to `O=c1c(O)c(-c2ccc(O)c(O)c2)oc2cc(O)cc(O)c12` [Quercetin], the “Potency (mol/l)” value on human AhR [1] (setting [4]) is reported as “no activity”. Besides, the “transactivation of the AhR (in words)” value on human AhR [1] (pure compounds in DMSO) is “no activity; also recorded: do not activate the AhR”.

With `COc1ccc(-c2cc(=O)c3c(OC)c(OC)c(OC)c(OC)c3o2)cc1` [Tangeritin], on human AhR [1], the “Potency (mol/l)” value is recorded as “no activity” and the “transactivation of the AhR (in words)” value was “no activity”.

Turning to `O=C(Cc1c[nH]c2ccccc12)c1ccco1` [compound “X”, 1-(2-furanyl)2-(3-indolyl)ethanone], the equivalent concentration at human AhR [3] (preliminary isolate from preparative HPLC) is given as 79 μmol β-naphtoflavone per gram sample.

On to `CC/C(=C(/CC)c1ccc(O)cc1)c1ccc(O)cc1` [diethylstilbestrol], for which the “transactivation of the AhR (in words)” value on human AhR [1] (pure compounds in DMSO) is on record as “failed also in transactivating the AhR”.

Take `O=c1cc(-c2ccccc2)oc2ccc3ccccc3c12` [β-Naphtoflavone]: the pEC50 on human AhR [1] (in plastic tubes, logistic dose response fit, read-out: Potency) is 8.00; at human AhR [3] (Example 10 text, read-out: EC50 value of the standard compound), approximately 8.00; at human AhR [3] (reference standard, read-out: EC50 value), 7.55; at human AhR [2] (setting [6]), 6.55.

Consider `CC[C@H](CC[C@@H](C)[C@H]1CC[C@H]2[C@@H]3CC=C4C[C@@H](O)CC[C@]4(C)[C@H]3CC[C@]12C)C(C)C` [β-Sitosterol], for which the “Potency (mol/l)” value at human AhR [1] (setting [4]) is “no activity”. Moreover, on human AhR [1] (pure compounds in DMSO), the “transactivation of the AhR (in words)” value is recorded as “failed also in transactivating the AhR”.

With Catechin, the “Potency (mol/l)” value on human AhR [1] (setting [4]) is “no activity”.
